From patent US20110092367A1, “Herbicidal Compositions Comprising 4-amino-3,6-dichloropyridine-2-carboxylic Acid” (BASF SE, priority 2008, published 2011)

Key:
Type in all cases: in vivo
[1] = tested on: Anthemis arvensis; assay: Field trial Example 1, successive application: damage on ANTAR
Source text: (§1) Aminiopyralid was used as commercial aquaeous solution having an active ingredient concentration of 240 g/l (Milestone™). Metazachlor was used as a commercial suspension concentrate having an active ingredient concentration of 500 g/l (Butisan S®).
(§2) The performance of aminopyralid applied as an alone treatment at 15, 30 and 50 g a.i./ha applied as an early post emergence treatment and an post emergence treatment in comparison to two different applications including metazachlor at 500 g a.i./ha as an early post emergence application in succession of aminopyralid as a post emergence application at 15 and 30 g a.i./ha was assessed in an oilseed rape field trials.
(§3) The early post emergence treatment was applied by means of fine distributed nozzles at the growth stage (GS) of the crop BBCH 11-12.
(§4) The post emergence treatment was applied by means of fine distributed nozzles at the growth stage (GS) of the crop BBCH 13-14.
(§5) The test period extended over the autumn and spring season (205 days).
(§6) In the following experiments, the herbicidal activity for the individual herbicide compounds (solo application) and of the herbicidal succession was assessed 4 times:
(§7) The evaluation for the damage on undesired weeds caused by the chemical compositions was carried out using a scale from 0 to 100%, compared to the untreated control plants. Here, 0 means no damage and 100 means complete destruction of the plants.

[2] = tested on: Mercurialis annua; assay: Greenhouse trial, post-emergence: MERAN; settings: for % activity 28 DAT: MERAN
Description: The test plants have been seeded, separately for each species, in plastic containers in sandy loamy soil containing 5% organic matter.
For the post emergence treatment, the plants were first grown to the 2 leaf station (GS 12). Here, the herbicidal compositions were suspended or emulsified in water as distribution medium and sprayed using finely distributing nozzels.
The plants have been cultivated due to there individual requirements at 10-25° C. and 20-35° C. The plants were irrigated due to there necessity. […]
as §7
Calculation of expected activity of binary mixtures was done by using the Colby-Formula according to Example 1.

[3] = tested on: Papaver rhoeas; assay: Field trial Example 1, successive application: damage on PAPRH
Source text: as §1, §2, §3, §4, §5, §6, §7

[4] = tested on: Stellaria media; assay: Field trial Example 1, successive application: damage on STEME
Source text: as §1, §2, §3, §4, §5, §6, §7

[5] = tested on: Stellaria media; assay: Field trial Example 2, combined application: STEME; settings: Aminopyralid 7.5 g ai/ha solo, 28 DAT
Description: as §1, §7
(§8) The value E, which is to be expected if the activity of the individual compounds is just additive, was calculated using the method of S. R. Colby (1967) “Calculating synergistic and antagonistic responses of herbicide combinations”, Weeds 15, p. 22 ff.
(§9) The performance of aminopyralid, applied as an alone treatment at […] and 15 g ai/ha, and the performance of metazachlor, applied as an alone treatment at 375 and 500 g ai/ha, as well as the mixtures of the both compounds have been assessed in winter oilseed rape field trials. The trials have been conducted in Germany at two locations.
(§10) Post emergence treatment was applied by means of fine distributed nozzels at the growth stage (GS/BBCH 11/12).

[6] = tested on: Anthemis arvensis; assay: Field trial Example 2, combined application: ANTAR
Description: as §1, §7, §8, §9, §10

[7] = tested on: Geranium pusillum; assay: Field trial Example 1, successive application: damage on GERPU
Source text: as §1, §2, §3, §4, §5, §6, §7

[8] = 15 g ai/ha, treatment A early post emergence, DAT 25/DALT 10
[9] = 15 g ai/ha, treatment A early post emergence, DAT 65/DALT 50
[10] = 15 g ai/ha, treatment A early post emergence, DAT 176/DALT 161
[11] = 15 g ai/ha, treatment B post emergence, DAT 25/DALT 10
[12] = 15 g ai/ha, treatment B post emergence, DAT 65/DALT 50
[13] = 15 g ai/ha, treatment B post emergence, DAT 176/DALT 161
[14] = 30 g ai/ha, treatment A early post emergence, DAT 25/DALT 10
[15] = 30 g ai/ha, treatment A early post emergence, DAT 65/DALT 50
[16] = 30 g ai/ha, treatment A early post emergence, DAT 176/DALT 161
[17] = 30 g ai/ha, treatment B post emergence, DAT 25/DALT 10
[18] = 30 g ai/ha, treatment B post emergence, DAT 65/DALT 50
[19] = 30 g ai/ha, treatment B post emergence, DAT 176/DALT 161
[20] = 50 g ai/ha, treatment A early post emergence, DAT 25/DALT 10
[21] = 50 g ai/ha, treatment A early post emergence, DAT 65/DALT 50
[22] = 50 g ai/ha, treatment A early post emergence, DAT 176/DALT 161
[23] = 50 g ai/ha, treatment B post emergence, DAT 25/DALT 10
[24] = 50 g ai/ha, treatment B post emergence, DAT 65/DALT 50
[25] = 50 g ai/ha, treatment B post emergence, DAT 176/DALT 161
[26] = aminopyralid 15 g ai/ha, treatment A, DAT 205/DALT 190
[27] = aminopyralid 15 g ai/ha, treatment B, DAT 205/DALT 190
[28] = aminopyralid 30 g ai/ha, treatment A, DAT 205/DALT 190
[29] = aminopyralid 30 g ai/ha, treatment B, DAT 205/DALT 190
[30] = aminopyralid 50 g ai/ha, treatment A, DAT 205/DALT 190
[31] = aminopyralid 50 g ai/ha, treatment B, DAT 205/DALT 190

Nc1cc(Cl)nc(C(=O)O)c1Cl [aminopyralid, 4-amino-3,6-dichloropyridine-2-carboxylic acid]
87%: damage on ANTAR [1, 11] | damage on ANTAR [1, 12]
83%: damage on GERPU [7, 24]
78%: damage on STEME [4, 27] | damage on GERPU [7, 10] | damage on GERPU [7, 17] | damage on GERPU [7, 23]
50%: damage on STEME [4, 12]
72%: damage on PAPRH [3, 11] | damage on PAPRH [3, 17] | damage on GERPU [7, 9]
67%: damage on STEME [4, 23]
85%: damage on PAPRH [3, 24]
73%: damage on GERPU [7, 26] | damage on GERPU [7, 27]
92%: damage on GERPU [7, 14]
52%: damage on STEME [4, 9]
38%: damage on STEME [4, 17]
95%: damage on PAPRH [3, 15] | damage on STEME [4, 19] | damage on STEME [4, 25] | damage on GERPU [7, 16]
99%: damage on PAPRH [3, 16] | damage on GERPU [7, 28]
94%: damage on ANTAR [1, 24] | % activity ([6]; Aminopyralid 15 g ai/ha solo, 29 DAT)
90%: % activity 28 DAT ([2]; aminopyralid 10 g ai/ha solo, post-emergence (Table 10)) | inhibition at 10 g/ha ([2]; Mercurialis annua, post-emergence, 672 h, read-out: % activity 28 DAT, MERAN) | damage on STEME [4, 14] | damage on GERPU [7, 15]
68%: damage on STEME [4, 18] | damage on GERPU [7, 12]
97%: damage on ANTAR [1, 8] | damage on PAPRH [3, 25] | damage on PAPRH [3, 26] | damage on PAPRH [3, 27] | damage on STEME [4, 15] | damage on STEME [4, 31] | damage on GERPU [7, 22] | damage on GERPU [7, 25]
57%: damage on GERPU [7, 8]
93%: damage on ANTAR [1, 23] | damage on PAPRH [3, 8] | damage on PAPRH [3, 9] | damage on STEME [4, 10] | damage on STEME [4, 26] | damage on GERPU [7, 19]
100%: damage on ANTAR [1, 10] | damage on ANTAR [1, 14] | damage on ANTAR [1, 16] | damage on ANTAR [1, 19] | damage on ANTAR [1, 20] | damage on ANTAR [1, 21] | damage on ANTAR [1, 22] | damage on ANTAR [1, 26] | damage on ANTAR [1, 27] | damage on ANTAR [1, 28] | damage on ANTAR [1, 29] | damage on ANTAR [1, 30] | damage on ANTAR [1, 31] | damage on PAPRH [3, 20] | damage on PAPRH [3, 21] | damage on PAPRH [3, 22] | damage on PAPRH [3, 29] | damage on PAPRH [3, 30] | damage on STEME [4, 20] | damage on STEME [4, 21] | damage on STEME [4, 22] | damage on STEME [4, 28] | damage on STEME [4, 30]
88%: damage on STEME [4, 24]
98%: damage on ANTAR [1, 13] | damage on ANTAR [1, 15] | damage on ANTAR [1, 25] | damage on PAPRH [3, 14] | damage on PAPRH [3, 28] | damage on PAPRH [3, 31] | damage on STEME [4, 16] | damage on STEME [4, 29] | damage on GERPU [7, 20] | damage on GERPU [7, 21] | damage on GERPU [7, 30] | damage on GERPU [7, 31]
32%: damage on STEME [4, 8]
40%: % activity 28 DAT ([2]; aminopyralid 5 g ai/ha solo, post-emergence (Tables 7-9))
70%: % activity 28 DAT ([2]; aminopyralid 5 g ai/ha solo, post-emergence (Table 10))
77%: damage on STEME [4, 13] | % activity ([6]; Aminopyralid 7.5 g ai/ha solo, 29 DAT)
82%: damage on ANTAR [1, 17] | damage on GERPU [7, 18]
80%: damage on PAPRH [3, 18] | damage on PAPRH [3, 23]
96%: damage on ANTAR [1, 9] | damage on PAPRH [3, 10] | damage on PAPRH [3, 13] | damage on PAPRH [3, 19] | % activity ([6]; Aminopyralid 15 g ai/ha solo, 78 DAT) | damage on GERPU [7, 29]
75%: % activity 28 DAT ([2]; aminopyralid 10 g ai/ha solo, post-emergence (Tables 7-9)) | damage on PAPRH [3, 12] | % activity [5] | damage on GERPU [7, 11] | damage on GERPU [7, 13]
91%: damage on ANTAR [1, 18]
12%: damage on STEME [4, 11]
